The record followed here is paper PMC7277860, “Viridistratins A−C, Antimicrobial and Cytotoxic Benzo[j]fluoranthenes from Stromata of Annulohypoxylon viridistratum (Hypoxylaceae, Ascomycota)” (Biomolecules, 2020).

The nature of data set [1]: Cytotoxicity assay (MTT). Format: cell-based. The method, then:
(§1) Compounds 1−5 were dissolved as described in the previous section. The cytotoxicity assay was initially performed against the cell lines L929 (mouse fibroblasts), as well as KB 3.1 (human papillomavirus-related endocervical adenocarcinoma), as described previously. A detailed protocol, as well as sources of the cell lines, is given in the Supporting Information.
(§2) After incubating the cell lines with a serial dilution of the test compounds (final range: 37 to 0.6 × 10^−3 µg/mL) for five days, the cells were dyed using 3-(4,5-dimethyl-2-thiazolyl)-2,5-diphenyl-2H-tetrazolium bromide (MTT), which is only converted to its purple formazan derivative by living cells. Then, the intensity of the purple derivative in relation to cells without additive (set to 100% viability) for each concentration of a test compound was quantified. For this, the absorption at 595 nm was measured using a microplate reader to calculate the percentage of cell viability. From this, the half-maximum inhibitory concentration (IC50, in µM) was calculated.
(§3) Protocol: Cytotoxicity Assay
(§4) The ass ay w as co nducted i n 9 6-well flat-bottom mi crotiter plates using the parameters summarised i n Tabl e S 2 and as described in [S2].
(§5) Cell lines L929 and KB 3.1 were incubated at 37 °C under 10 % CO2 in Gibco™ DMEM medium (Thermo Fisher Scientific, Waltham, MA, USA) supplemented with 10 % FBS. A microtiter plate was filled with 120 µL of this suspension (50,000/mL) in each well.
(§6) Seperately, another microtiter plate was filled with 100 µL of growth medium in each well. Then, 50 µL of the test compound sol utions (1 mg/mL) were given to wells of the first column in two replicates (one compound per row). C ell s wi thout addi ti ves, Me O H, and MeOH: DMSO 9+1 were used as negative controls. Starting from the first column, 50 µL of the solutions were gradually transferred to the ne xt col umn, the conte nts thoroughl y mi xed, and 50 µ L transferred to the following column. This created a serial dilution of the test compounds r anging from 333 µg/mL to 1.9 ×10−3 µg/mL. The remai ni ng 50 µL after column twelve were discarded. From this microtiter plate, 60 µL of the sol utions from 111 µg/ mL to 1.9×10−3 µg/mL were given to the first plate containing 120 µL of the cel l suspens i ons (i.e. the hi ghest concentrati on 333 µg/mL was not used). T his resulted i n fi nal compound concent rati ons rangi ng from […]
(§7) After 5 days of incubation under the aforeme ntioned i ncubati on condi ti ons, the half maximum inhibitory concentrati ons (IC 50) were determined using a colorimetric tetrazolium dye MTT assay [S3].
(§8) For this, 20 µL of a 5 mg/mL solution of 3-( 4 ,5 -dimethyl-2-thi azo l yl)-2 ,5 -di phenyl -2H-tetrazolium bromide (MTT) w ere added to each well and incubated for two hours at 37 °C. Then, the microtiter plate was centrifuged (3,000 r p m, 5 mi n) and the supernat ant remo ved by ho l di ng the pl ate upsi de-do wn and gentle shaking. Afterwards, the wells were washed using 100 µL of phosph ate buffered saline (PBS).
(§9) The plate was again centrifuged and the supernatant removed as described before. Then, 100 µL of an isopropanol:HCl solution (1L i sopropanol+4 mL HCl 37 % w/v) were added to the wells. After i ncubati ng fo r 10 mi n at ambi ent te mperature, the a bso r pti o n of the well s at 595 nm was measured wi th an I nfi ni te ® 200 Pro microplate reader (TECAN, Männedorf, Schweiz).
(§10) The absorption values of the cells without additives were averaged and set to 100 % cell viability.
(§11) Then, t he me ans of absorption of the two compound replicates were set in relation to the blank media.
These percentage values were plotted a gainst the concentration range (37 µg/mL to 0.6×10 −3 µg/mL).
The IC50 val ue w as read from the plot ( i n µg/mL) and the uni ts conversed to µM.
If effects were observed wi th cell lines L929 and KB 3.1 (IC50 < 50 µM), the other cell lines were tested using the same protocol.
Table S2: Cytotoxicity assay experiment parameters cell line type No. growth medium […]

A short description of data set [2]: Cytotoxicity assay (MTT). Type of data set: cell-based, human. The procedure: as §1, §2
If an inhibition of cell viability with an IC50 < 50 µM was observed, further cell lines were subjected to the test compounds: PC-3 (human prostate adenocarcinoma), SK-OV-3 (human ovary adenocarcinoma), MCF-7 (human breast adenocarcinoma), A431 (human squamous carcinoma) and A549 (human lung carcinoma).
as §3, §4, §5, §6, §7, §8, §9, §10, §11
These percentage values were plotted a gainst the concentration range (37 µg/mL to 0.6×10 −3 µg/mL). […]

A further data set deals with Pichia anomala. The data set can be described thus: MIC serial dilution assay. Type of data set: cell-based. The settings on record: Pichia anomala DSM6766; overnight, 30 °C; reference nystatin 1 mg/mL. The procedure: (§12) Compounds 1, 2, 4 and 5 were dissolved in MeOH (1 mg/mL) for the antimicrobial activity assay, while compound 3 was dissolved in MeOH: DMSO 9+1 (1 mg/mL). The solvents were also used as negative controls.
(§13) Minimum inhibitory concentrations (MIC) were determined in a serial dilution assay, as described previously; a detailed protocol can be found in the Supporting Information. The compounds (1 mg/mL) were diluted to a range of 66.7 to 0.52 µg/mL and incubated with the test organisms overnight. Inhibition of growth was visually evaluated the next day: the MIC is defined as the lowest concentration of the test compound where no growth of the test organism was observed. Various test organisms of fungal and bacterial origin were tested to cover a broad range of microorganisms. This selection is also being used as a standard test panel in our attempts to discover new anti-infectives, as it represents a broad spectrum of pathogens of clinical interest, as well as sensitive indicator strains (bacteria: Bacillus subtilis, Staphylococcus aureus, Micrococcus luteus, Chromobacterium violaceum, Escherichia coli and Pseudomonas aeruginosa; mycobacteria: Mycolicibacterium smegmatis and fungi: Candida albicans, Schizosaccharomyces pombe, Mucor hiemalis, Pichia anomala and Rhodotorula glutinis).
(§14) Protocol: Antimicrobial Activi ty Assay
(§15) The assay was conducted as a minimum inhi bitory concentration (MIC) assay in 96-well ro und-bottom mi crotiter pl ate s usi ng the p ar ameter s su mm ari zed i n T a bl e S 1 and as already described i n [S1].
(§16) Stocks of the test organi sms were generated by growing the organisms o ver ni ght i n 50 mL shaki ng fl asks fi ll ed wi th 25 mL of the growth medi um at 140 rpm (for media and temperatures see Table S1). If the organisms were well grown the ne xt day, which was checked by occurrence of an optical density (OD)>30 of the suspension (OD600 nm for bacteria, OD548 nm for fungi and M. smegma tis) , aliquots of these were stored i n 1.5 mL reaction tube s in a freezer at −80 °C for up to 12 mo nths . Upon use, aliquots were unth awed and the OD of the suspension measured and adjusted by diluting with the respective growth medi um. OD600 nm w as adj usted to 0.01 and OD548 nm to 0.1.
(§17) Subse que ntly, 150 µL o f the adjusted suspensions were added to all wells of a 96-wel l microtiter pl ate (one test organi sm per plate). In row A, additional 130 µL of suspensions plus 20 µL of the test compounds (1 mg/mL) and the controls (one compound/column) were added. MeOH as well as MeOH:DMSO 9+1 were used as negative controls, while different positive controls (refer ences) were used for the test organisms (see Tabl e S1). Then, starti ng from row A, 150 µ L of the suspension were transferred to the next row, the contents thoroughly mixed, and 150 µ L transferred to the following row.
(§18) The remaining 150 µ L after row H were discarded. […]
(§19) compounds, ranging from 66.7 µg/mL i n row A to 0.52 µg/mL i n row H.
(§20) The microtiter plates were then incubated overnight o n a microplate shaker at 800 rpm at 30 or 37 °C (see Table S1) and were visually evaluated the next day. The MIC is defined as the lowest concentration were no growth of the test organism was o bserved. A lower MIC thus corresponds to a higher antimicrobial activity of the test compound.
(§21) Table S1: MIC assay ex per i men t parameters test organism strain No. growth incubation positive control (reference) […]
Pichia anomala DSM6766 MYC 3 30 nyst ati n 1.0 mg/mL
(§22) Rhodotorula glutinis DSM10134 MYC 3 30 nyst ati n 1.0 mg/mL
(§23) 1 MHB: Müller-Hinton Broth (SN X927.1, Ca r l Roth GmbH, Karlsruhe, Germany) 2 7H9+ADC: Middlebrook 7H9 Broth Base + Middlebrook ADC Growth Supplement (SN M0678+M0553, Merck, Darmstadt, Germany)
(§24) 3 MYC: 1 % w/v, bacto peptone, 1% w/v yeast extract, 2 % w /v glycerol, pH 6.3 [S1] Helaly, S.E.; Ashrafi, S.; Teponno, R.B.; Bernecker, S.; Dababat, A.A.; Maier, W.; Stadler, M.
(§25) Nematicidal Cyclic Lipodepsipeptides and a Xanthocillin Derivative from a Phaeosphariaceous […]

The subject of a further data set is Candida albicans. The data set can be described thus: MIC serial dilution assay. The settings on record: Candida albicans DSM1665; overnight, 30 °C; reference nystatin 1 mg/mL. Format: cell-based. The procedure:
as §12, §13, §14, §15, §16, §17, §18, §19, §20, §21
Candida albicans DSM1665 MYC 3 30 nyst ati n 1.0 mg/mL […]
as §22, §23, §24, §25

Data set [3] concerns Schizosaccharomyces pombe. Description: MIC serial dilution assay. Format: cell-based. As to conditions: Schizosaccharomyces pombe DSM70572; overnight, 30 °C; reference nystatin 1 mg/mL. The procedure: as §12, §13, §14, §15, §16, §17, §18, §19, §20, §21
Schizosaccharomyces DSM70572 MYC 3 30 nyst ati n 1.0 mg/mL […]
as §22, §23, §24, §25

The subject of the next data set is Mucor hiemalis. Description: MIC serial dilution assay. Format: cell-based. As to conditions: Mucor hiemalis DSM2656; overnight, 30 °C; reference nystatin 1 mg/mL. The procedure: as §12, §13, §14, §15, §16, §17, §18, §19, §20, §21
Mucor hiemalis DSM2656 MYC 3 30 nyst ati n 1.0 mg/mL […]
as §22, §23, §24, §25

A further data set relates to Rhodotorula glutinis. Description: MIC serial dilution assay. Format: cell-based. The settings on record: Rhodotorula glutinis DSM10134; overnight, 30 °C; reference nystatin 1 mg/mL. The procedure:
as §12, §13, §14, §15, §16, §17, §18, §19, §20, §21, §22, §23, §24, §25

The IC50 is the concentration needed to halve the response being measured. The low end stands for greater potency in that assay, the high end for weaker potency in that assay.

In the case of `C/C(=C\c1csc(C)n1)[C@@H]1C[C@@H]2O[C@]2(C)CCC[C@H](C)[C@H](O)[C@@H](C)C(=O)C(C)(C)[C@@H](O)CC(=O)O1` [epothilone B, reference compound], the IC50 at 5 days in the data set “Cytotoxicity assay (MTT) [1]” (KB 3.1 human endocervical adenocarcinoma) was 0.79 nM; in “Cytotoxicity assay (MTT) [1]” (L929 mouse fibroblasts) it was 0.06 nM; in the data set “Cytotoxicity assay (MTT) [2]” (A431 human squamous AC), 0.05 nM; in the data set “Cytotoxicity assay (MTT) [2]” (A549 human lung carcinoma), 0.08 nM; in “Cytotoxicity assay (MTT) [2]” (MCF-7 human breast AC), 0.12 nM; in “Cytotoxicity assay (MTT) [2]” (PC-3 human prostate AC), 0.08 nM. For the same compound, the IC50 at 5 days in the data set “Cytotoxicity assay (MTT) [2]” (SK-OV-3 human ovary AC) came out at 0.34 nM.

As for `C[C@@H]1[C@H](O)[C@@H](C)/C=C/C=C/CC/C=C/C=C/C=C/C=C/C(O[C@H]2O[C@H](C)[C@@H](O)[C@H](N)[C@@H]2O)CC2O[C@](O)(CC(O)C(O)CCC(O)CC(O)CC(O)CC(=O)O[C@H]1C)CC(O)C2C(=O)O` (stereo partly drawn) [nystatin, reference compound], the “Minimum Inhibitory Concentration (MIC)” value with Pichia anomala is reported as 66.7 ^5 µg/mL; in the data set with Candida albicans, 66.7 ^5 µg/mL; in data set [3] it was 33.3 ^5 µg/mL; with Mucor hiemalis it was 66.7 ^5 µg/mL; in the data set with Rhodotorula glutinis, 16.7 ^5 µg/mL.
